{
  "source": "patent US8269000B2",
  "about": "“Substituted pyrimidine and triazine compounds” (Gruenenthal GmbH, priority 2008, dated 2012)",
  "data": [
    {"target": "T1, rat B1R (Rattus norvegicus, UniProt P97583)", "T1 construct": "expressed in transfected cells; host or cells: CHO K1 cells", "T1 sequence (P97583 1-337)": "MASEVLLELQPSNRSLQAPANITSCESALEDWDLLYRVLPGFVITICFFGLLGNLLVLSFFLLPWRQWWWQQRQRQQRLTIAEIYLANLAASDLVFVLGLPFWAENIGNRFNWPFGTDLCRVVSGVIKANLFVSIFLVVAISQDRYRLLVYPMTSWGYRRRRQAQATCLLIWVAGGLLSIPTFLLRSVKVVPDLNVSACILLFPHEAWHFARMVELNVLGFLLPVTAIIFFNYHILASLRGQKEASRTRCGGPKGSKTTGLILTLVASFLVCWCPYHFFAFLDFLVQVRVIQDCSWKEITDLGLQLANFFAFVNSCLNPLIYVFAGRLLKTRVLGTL", "assay": "FLIPR Ca2+ functional study on bradykinin receptor 1 (rB1R CHO K1 cells)", "format": "cell-based", "conditions": "% inhibition rat B1R at 10 μM", "how_it_was_run": "(§1)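 Antagonism was calculated as % of maximal inhibition of the Ca2+ rise triggered by agonist at EC80 (Lys-Des-Arg9-bradykinin for hB1R, Des-Arg9-bradykinin for rB1R), added 10-20 min after test compound (10 μM or serial dilutions for IC50) to Fluo-4-loaded transfected CHO K1 cells on FLIPR. Duplicates or triplicates, ≥2 independent runs.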", "units": {"% inh. (rat B1R) 10 μM": "%"}, "values": [
      {"compound": "(1S,5R)-8-[4-[[(2S)-1-[(4-methoxy-2,6-dimethyl-phenyl)sulfonyl]-pyrrolidin-2-yl]-methoxy]-pyrimidin-2-yl]-3-pyridin-4-yloxy-8-azabicyclo[3.2.1]octane [H_CC-052]", "% inh. (rat B1R) 10 μM": 72},
      {"compound": "COc1cc(C)c(S(=O)(=O)N2CCCCC2COc2ccnc(N3CCN(c4ccncc4)CC3)n2)c(C)c1", "note": "(centres unmarked) [H_CC-005, 4-[[1-(4-methoxy-2,6-dimethylphenyl)sulfonyl-2-pipendinyl]methoxy]-2-[4-(4-pyridyl)-1-piperazinyl]pyrimidine]", "% inh. (rat B1R) 10 μM": 94},
      {"compound": "COc1cc(C)c(S(=O)(=O)N2c3ccccc3C[C@H]2COc2ccnc(N3CCC(N4CCN(C)CC4)CC3)n2)c(C)c1", "note": "[H_CC-018, (2S)-1-(4-methoxy-2,6-dimethylphenyl)sulfonyl-2-[[2-[4-(4-methyl-1-piperazinyl)-1-pipendinyl]-4-pyrimidinyl]oxymethyl]indoline]", "% inh. (rat B1R) 10 μM": 91},
      {"compound": "COc1cc(C)c(S(=O)(=O)N2CCCCC2COc2ccnc(N3CCC(CCN4CCCCC4)CC3)n2)c(C)c1", "note": "(centres unmarked) [H_CC-022]", "% inh. (rat B1R) 10 μM": 77}
    ]},
    {"target": "T1, rat B1R", "assay": "FLIPR Ca2+ functional study on bradykinin receptor 1 (rB1R CHO K1 cells)", "format": "cell-based", "conditions": "CHO-K1, % inhibition rat B1R at 10 μM, read-out: % inh. (rat B1R) 10 μM", "how_it_was_run": "as §1", "units": {"inhibition at 10 µM": "%"}, "values": [
      {"compound": "COc1cc(C)c(S(=O)(=O)N2c3ccccc3C[C@H]2COc2nccc(N3CCC(Oc4cnccn4)CC3)n2)c(C)c1", "note": "[G_CC-092, (2S)-1-[(4-methoxy-2,6-dimethyl-phenyl)sulfonyl]-2-[[4-(4-pyrazin-2-yloxy-piperidin-1-yl)-pyrimidin-2-yl]oxy-methyl]-2,3-dihydro-1H-indole]", "inhibition at 10 µM": 85},
      {"compound": "COc1cc(C)c(S(=O)(=O)N2CCCCC2COc2ccnc(N3CCC(CCCN4CCCC4)(c4cccnc4)CC3)n2)c(C)c1", "note": "(centres unmarked) [H_CC-082, 4-[[1-[(4-methoxy-2,6-dimethyl-phenyl)sulfonyl]-piperidin-2-yl]-methoxy]-2-[4-pyridin-3-yl-4-(3-pyrrolidin-1-yl-propyl)piperidin-1-yl]-pyrimidine]", "inhibition at 10 µM": 72},
      {"compound": "CN(C(COc1ccnc(N2CCC(OCCN3CCCC3)(c3cccnc3)CC2)n1)c1ccccc1)S(=O)(=O)c1ccc2ccccc2c1", "note": "(centres unmarked) [H_CC-038, N-methyl-N-[1-phenyl-2-[[2-[4-(3-pyridyl)-4-(2-1-pyrrolidinylethoxy)-1-piperidinyl]-4-pyrimidinyl]oxy]ethyl]-2-naphthalenesulfonamide]", "inhibition at 10 µM": 70},
      {"compound": "COc1cc(C)c(S(=O)(=O)N(C)CCOc2ccnc(N3CCC(OCCN4CCCC4)(c4cccnc4)CC3)n2)c(C)c1", "note": "[H_CC-033, 4-methoxy-N,2,6-trimethyl-N-[2-[[2-[4-(3-pyridyl)-4-(2-1-pyrrolidinylethoxy)-1-piperidinyl]-4-pyrimidinyl]oxy]ethyl]benzenesulfonamide]", "inhibition at 10 µM": 82},
      {"compound": "COc1cc(C)c(S(=O)(=O)N2c3ccccc3C[C@H]2COc2ccnc(N(C)CCCN3CCC(c4ccccc4)(N(C)C)CC3)n2)c(C)c1", "note": "[H_CC-075, 3-(4-dimethylamino-4-phenyl-piperidin-1-yl)-propyl-[4-[[(2S)-1-[(4-methoxy-2,6-dimethyl-phenyl)sulfonyl]-2,3-dihydro-1H-indol-2-yl]-methoxy]-pyrimidin-2-yl]-methyl-amine]", "inhibition at 10 µM": 75},
      {"compound": "COc1cc(C)c(S(=O)(=O)N(C)CCOc2nccc(N3CCN(c4ccc(F)cc4)CC3)n2)c(C)c1", "note": "[G_CC-005, N-[2-[[4-[4-(4-fluorophenyl)-1-piperazinyl]-2-pyrimidinyl]oxy]ethyl]-4-methoxy-N,2,6-trimethylbenzenesulfonamide]", "inhibition at 10 µM": 81},
      {"compound": "COc1cc(C)c(S(=O)(=O)N2CCC[C@@H]2COc2nccc(N3CCCC3Cc3ccccn3)n2)c(C)c1", "note": "(stereo partly drawn) [G_CC-084, 2-[[(2R)-1-[(4-methoxy-2,6-dimethyl-phenyl)sulfonyl]-pyrrolidin-2-yl]-methoxy]-4-[2-(pyridin-2-yl-methyl)-pyrrolidin-1-yl]-pyrimidine]", "inhibition at 10 µM": 83},
      {"compound": "COc1cc(C)c(S(=O)(=O)N(C)CCOc2nccc(N3CCC4(CCN(Cc5ccccc5)C4)C3)n2)c(C)c1", "note": "(centres unmarked) [G_CC-028, N-[2-[[4-(3-benzyl-3,7-diazaspiro[4.4]nonan-7-yl)-2-pyrimidinyl]oxy]ethyl]-4-methoxy-N,2,6-trimethylbenzenesulfonamide]", "inhibition at 10 µM": 104},
      {"compound": "COc1cc(C)c(S(=O)(=O)N2CCC[C@H]2COc2ccnc(N3CCC(N4CCN(C)CC4)CC3)n2)c(C)c1", "note": "[H_CC-010, 4-[[(2S)-1-(4-methoxy-2,6-dimethylphenyl)sulfonyl-2-pyrrolidinyl]methoxy]-2-[4-(4-methyl-1-piperazinyl)-1-piperidinyl]pyrimidine]", "inhibition at 10 µM": 100},
      {"compound": "COc1cc(C)c(S(=O)(=O)N2CCCCC2COc2nccc(N3CCN(c4ncccn4)CC3)n2)c(C)c1", "note": "(centres unmarked) [G_CC-012, 2-[[1-(4-methoxy-2,6-dimethylphenyl)sulfonyl-2-piperidinyl]methoxy]-4-[4-(2-pyrimidinyl)-1-piperazinyl]pyrimidine]", "inhibition at 10 µM": 76},
      {"compound": "COc1cc(C)c(S(=O)(=O)N2CC(Oc3nccc(N(C)CCN4CCC(c5ccccc5)(N(C)C)CC4)n3)C2)c(C)c1", "note": "[G_CC-123, 2-(4-dimethylamino-4-phenyl-piperidin-1-yl)-ethyl-[2-[1-[(4-methoxy-2,6-dimethyl-phenyl)sulfonyl]-azetidin-3-yl]oxy-pyrimidin-4-yl]-methyl-amine]", "inhibition at 10 µM": 81},
      {"compound": "COc1cc(C)c(S(=O)(=O)N2CCC[C@H]2COc2nccc(N3CCC(c4ccccc4)(N4CCCC4)CC3)n2)c(C)c1", "note": "[G_CC-115, 2-[[(2S)-1-[(4-methoxy-2,6-dimethyl-phenyl)sulfonyl]-pyrrolidin-2-yl]-methoxy]-4-(4-phenyl-4-pyrrolidin-1-yl-piperidin-1-yl)-pyrimidine]", "inhibition at 10 µM": 81},
      {"compound": "COc1cc(C)c(S(=O)(=O)N2CCC[C@H]2COc2nccc(N3CCC(O)(c4cccnc4)CC3)n2)c(C)c1", "note": "[G_CC-020, 1-[2-[[(2S)-1-(4-methoxy-2,6-dimethylphenyl)sulfonyl-2-pyrrolidinyl]methoxy]-4-pyrimidinyl]-4-(3-pyridyl)-4-piperidinol]", "inhibition at 10 µM": 102},
      {"compound": "COc1cc(C)c(S(=O)(=O)N(C)CCOc2nccc(N3CCC4(CCN(Cc5ccc(F)cc5)C4=O)CC3)n2)c(C)c1", "note": "[G_CC-045, N-[2-[[4-[3-[(4-fluorophenyl)methyl]-4-oxo-3,8-diazaspiro[4.5]decan-8-yl]-2-pyrimidinyl]oxy]ethyl]-4-methoxy-N,2,6-trimethylbenzenesulfonamide]", "inhibition at 10 µM": 96},
      {"compound": "COc1cc(C)c(S(=O)(=O)N(C)CCOc2nccc(N(C)CCCN3CCC(c4ccccc4)(N(C)C)CC3)n2)c(C)c1", "note": "[G_CC-100, N-[2-[4-[3-(4-dimethylamino-4-phenyl-piperidin-1-yl)-propyl-methyl-amino]-pyrimidin-2-yl]oxy-ethyl]-4-methoxy-N,2,6-trimethyl-benzenesulfonic acid amide]", "inhibition at 10 µM": 89},
      {"compound": "COc1cc(C)c(S(=O)(=O)N2CCCCC2COc2nccc(N(C)CCN3CCC(O)(c4cccnc4)CC3)n2)c(C)c1", "note": "(centres unmarked) [G_CC-106, 1-[2-[[2-[[1-[(4-methoxy-2,6-dimethyl-phenyl)sulfonyl]-piperidin-2-yl]-methoxy]-pyrimidin-4-yl]-methyl-amino]ethyl]-4-pyridin-3-yl-piperidin-4-ol]", "inhibition at 10 µM": 95},
      {"compound": "COc1cc(C)c(S(=O)(=O)N(C)C(COc2nccc(N3CCC(c4cccc(F)c4)(N4CCN(C)CC4)CC3)n2)c2ccccc2)c(C)c1", "note": "(centres unmarked) [G_CC-135, N-[2-[4-[4-(3-fluorophenyl)-4-(4-methyl-piperazin-1-yl)-piperidin-1-yl]-pyrimidin-2-yl]oxy-1-phenyl-ethyl]-4-methoxy-N,2,6-trimethyl-benzenesulfonic acid amide]", "inhibition at 10 µM": 53},
      {"compound": "COc1cc(C)c(S(=O)(=O)N2CCCCC2COc2ccnc(N3CCC(OCCN4CCCC4)(c4cccnc4)CC3)n2)c(C)c1", "note": "(centres unmarked) [H_CC-035, 4-[[1-(4-methoxy-2,6-dimethylphenyl)sulfonyl-2-piperidinyl]methoxy]-2-[4-(3-pyridyl)-4-(2-1-pyrrolidinylethoxy)-1-piperidinyl]pyrimidine]", "inhibition at 10 µM": 86},
      {"compound": "COc1cc(C)c(S(=O)(=O)N2CCCCC2COc2ccnc(N(C)CCN3CCC(c4ccccc4)(N(C)C)CC3)n2)c(C)c1", "note": "(centres unmarked) [H_CC-044, 2-(4-dimethylamino-4-phenyl-piperidin-1-yl)-ethyl-[4-[[1-[(4-methoxy-2,6-dimethyl-phenyl)sulfonyl]-piperidin-2-yl]-methoxy]-pyrimidin-2-yl]-methyl-amine]", "inhibition at 10 µM": 102},
      {"compound": "COc1cc(C)c(S(=O)(=O)N2CC(Oc3nccc(N4CCC(O)(c5cccnc5)CC4)n3)C2)c(C)c1", "note": "[G_CC-128, 1-[2-[1-[(4-methoxy-2,6-dimethyl-phenyl)sulfonyl]-azetidin-3-yl]oxy-pyrimidin-4-yl]-4-pyridin-3-yl-piperidin-4-ol]", "inhibition at 10 µM": 57},
      {"compound": "COc1cc(C)c(S(=O)(=O)N2CCC[C@H]2COc2nccc(N3CCC4(CC3)C(=O)NCC4c3cccc(C(F)(F)F)c3)n2)c(C)c1", "note": "(stereo partly drawn) [G_CC-049, 8-[2-[[(2S)-1-(4-methoxy-2,6-dimethylphenyl)sulfonyl-2-pyrrolidinyl]methoxy]-4-pyrimidinyl]-1-[3-(trifluoromethyl)phenyl]-3,8-diazaspiro[4.5]decan-4-one]", "inhibition at 10 µM": 72},
      {"compound": "COc1cc(C)c(S(=O)(=O)N2CCCCC2COc2nccc(N3CCN(c4ccc(F)cc4)CC3)n2)c(C)c1", "note": "(centres unmarked) [G_CC-010, 4-[4-(4-fluorophenyl)-1-piperazinyl]-2-[[1-(4-methoxy-2,6-dimethylphenyl)sulfonyl-2-piperidinyl]methoxy]pyrimidine]", "inhibition at 10 µM": 70}
    ]}
  ]
}
